In brackets after ≈: the same amount, converted by molar mass.
Experiments:
[1] = 'as known'; cited from earlier work
[2] = Aqueous solubility of quercetin without and with sulfated beta-cyclodextrin (UV absorbance at 375 nm); type: physicochemical; details: aqueous sulfated beta-cyclodextrin solution, aqueous with cosolvent or surfactant or cyclodextrin
Excerpt: FIG. 8 depicts a graph of sulfated beta-cyclodextrin formed 1:1 complex with antioxidant quercetin, showing quercetin can be encapsulated in the gel. […] In the presence of sulfated beta-cyclodextrin, the absorbance increased. The sulfated beta-cyclodextrin can form 1:1 complex with quercetin through host-guest chemistry. […] Embedment of quercetin in hydrogel and its release: The sulfated beta-cyclodextrin in the crosslinked polymer hydrogel allows drug molecules, even hydrophobic compounds, to incorporate into it through host-guest interaction. An encapsulated-quercetin hydrogel film was prepared (FIG. 8). […] The high equilibrium binding constant of the sulfated β-cyclodextrin/quercetin complex (Kf=2.53×10^4 M^−1 at 25° C.) permits encapsulation of high concentration of quercetin in gel. The fabrication of the quercetin hydrogel is similar to that mentioned above, except for alternative sulfated beta-cyclodextrin with 1:1 sulfated beta-cyclodextrin/quercetin complex. The resultant hydrogel attained similar high fracture toughness and stretching ability in the presence of quercetin (FIG. 9).

solubility ([2]; in 1 mM sulfated beta-cyclodextrin): 42 µM (≈ 12.7 µg/mL) | solubility ([2]; in 2 mM sulfated beta-cyclodextrin): 73 µM (≈ 22.1 µg/mL)
Structure (SMILES): O=c1c(O)c(-c2ccc(O)c(O)c2)oc2cc(O)cc(O)c12 [quercetin]
solubility in water [1]: ~1.3 µM (≈ 0.393 µg/mL)
